Results: US11661426B2, “Imidazole-containing inhibitors of ALK2 kinase” (BioCryst Pharmaceuticals, Inc., priority 2017, dated 2023)

Molecular target: ALK2 (Homo sapiens (Human), UniProt Q04771)
Assay: ALK2 inhibition, LanthaScreen Eu Kinase Binding Assay (ThermoFisher Scientific / Life Technologies)
Settings: read-out: Measured Ki (IC50) Value for Compounds: IC50
Procedure: Biochemical assays to measure the inhibitory effects of the compounds were performed by ThermoFisher Scientific (Life Technologies). ALK2 inhibition was tested using LanthaScreen™ Eu Kinase Binding Assay screening protocol.

ALK2, sequence (Q04771 21-509): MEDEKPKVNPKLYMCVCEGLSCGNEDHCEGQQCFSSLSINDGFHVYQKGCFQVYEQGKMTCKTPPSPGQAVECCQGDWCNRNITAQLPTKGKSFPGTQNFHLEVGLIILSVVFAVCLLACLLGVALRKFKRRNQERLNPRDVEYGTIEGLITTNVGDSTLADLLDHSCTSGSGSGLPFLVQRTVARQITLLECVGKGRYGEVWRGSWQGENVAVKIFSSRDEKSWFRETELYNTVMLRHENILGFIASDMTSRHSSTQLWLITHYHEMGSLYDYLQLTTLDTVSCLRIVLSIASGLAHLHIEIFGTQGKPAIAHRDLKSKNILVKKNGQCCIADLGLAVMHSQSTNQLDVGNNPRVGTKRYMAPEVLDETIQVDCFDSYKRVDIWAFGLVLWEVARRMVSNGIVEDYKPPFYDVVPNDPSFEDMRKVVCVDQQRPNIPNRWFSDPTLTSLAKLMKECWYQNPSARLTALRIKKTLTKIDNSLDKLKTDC

Compound	IC50
COc1cc(-n2cnc(Nc3nc(N4CCC[C@H]4C(N)=O)nc4sc(CN5CCCCC5)cc34)c2)cc(OC)c1OC [Compound 406b, (S)-1-(6-(piperidin-1-ylmethyl)-4-((1-(3,4,5-trimethoxyphenyl)-1H-imidazol-4-yl)amino)thieno[2,3-d]pyrimidin-2-yl)pyrrolidine-2-carboxamide]	< 100 nM
COc1cc(-n2cnc(Nc3nc(N4CCC[C@H]4C(N)=O)nc4sc(CN5CCOCC5)cc34)c2)cc(OC)c1OC [Compound 407b, (S)-1-(6-(morpholinomethyl)-4-((1-(3,4,5-trimethoxyphenyl)-1H-imidazol-4-yl)amino)thieno[2,3-d]pyrimidin-2-yl)pyrrolidine-2-carboxamide]	< 100 nM
COc1cc(-n2cnc(Nc3nc(N4CCC[C@H]4C(N)=O)nc4sc(CN5CCN(c6ccccn6)CC5)cc34)c2)cc(OC)c1OC [Compound 408b, (S)-1-(6-((4-(pyridin-2-yl)piperazin-1-yl)methyl)-4-((1-(3,4,5-trimethoxyphenyl)-1H-imidazol-4-yl)amino)thieno[2,3-d]pyrimidin-2-yl)pyrrolidine-2-carboxamide]	< 100 nM
COc1cc(-n2cnc(Nc3nc(N4CCCCC4)c4ccc(CN5CCCC5)cc4n3)c2)cc(OC)c1OC [Compound 409e, 4-(piperidin-1-yl)-7-(pyrrolidin-1-ylmethyl)-N-(1-(3,4,5-trimethoxyphenyl)-1H-imidazol-4-yl)quinazolin-2-amine]	< 100 nM
COc1cc(-n2cnc(Nc3nc(N4CCC[C@H]4CO)nn4c(C(=O)N5CCCCC5)ccc34)c2)cc(OC)c1OC [Compound 410e, (S)-(2-(2-(hydroxymethyl)pyrrolidin-1-yl)-4-((1-(3,4,5-trimethoxyphenyl)-1H-imidazol-4-yl)amino)pyrrolo[2,1-f][1,2,4]triazin-7-yl)(piperidin-1-yl)methanone]	< 100 nM
COC(=O)c1cc(Nc2cn(-c3cc(OC)c(OC)c(OC)c3)cn2)c2occc2c1 [Compound 411b, methyl 7-((1-(3,4,5-trimethoxyphenyl)-1H-imidazol-4-yl)amino)benzofuran-5-carboxylate]	100 to 1000 nM
COc1cc(-n2cnc(Nc3cc(C(=O)O)cc4ccoc34)c2)cc(OC)c1OC [Compound 411c, 7-((1-(3,4,5-trimethoxyphenyl)-1H-imidazol-4-yl)amino)benzofuran-5-carboxylic acid]	100 to 1000 nM
COc1cc(-n2cnc(Nc3cc(C(=O)N4CCC[C@H]4C(N)=O)cc4ccoc34)c2)cc(OC)c1OC [Compound 411d, (S)-1-(7-((1-(3,4,5-trimethoxyphenyl)-1H-imidazol-4-yl)amino)benzofuran-5-carbonyl)pyrrolidine-2-carboxamide]	100 to 1000 nM
COc1cc(-n2cnc(Nc3cc(C(=O)N4CCCC4)cc4ccoc34)c2)cc(OC)c1OC [Compound 412a, pyrrolidin-1-yl(7-((1-(3,4,5-trimethoxyphenyl)-1H-imidazol-4-yl)amino)benzofuran-5-yl)methanone]	100 to 1000 nM

Now from value to molecule:

IC50	Compound
100 to 1000 nM	COc1cc(-n2cnc(Nc3cc(C(=O)N4CCC[C@@H](N)C4)cc4ccoc34)c2)cc(OC)c1OC [Compound 413b, (R)-(3-aminopiperidin-1-yl)(7-((1-(3,4,5-trimethoxyphenyl)-1H-imidazol-4-yl)amino)benzofuran-5-yl)methanone]
100 to 1000 nM	OC[C@@H]1CCCN1c1nc(Nc2cn(-c3ccc(OC(F)(F)F)cc3)cn2)c2cccn2n1 [Compound 414d, (S)-(1-(4-((1-(4-(trifluoromethoxy)phenyl)-1H-imidazol-4-yl)amino)pyrrolo[2,1-f][1,2,4]triazin-2-yl)pyrrolidin-2-yl)methanol]
100 to 1000 nM	COc1cc(-n2cnc(Nc3nc(N4CCC[C@H]4CO)c4cccn4n3)n2)cc(OC)c1OC [Compound 415d, (S)-(1-(2-((1-(3,4,5-trimethoxyphenyl)-1H-1,2,4-triazol-3-yl)amino)pyrrolo[2,1-f][1,2,4]triazin-4-yl)pyrrolidin-2-yl)methanol]
< 100 nM	COC(=O)c1cc(OC)cc(-n2cnc(Nc3nc(N4CCC[C@H]4CO)nn4cccc34)c2)c1 [Compound 416e, (S)-methyl 3-(4-((2-(2-(hydroxymethyl)pyrrolidin-1-yl)pyrrolo[2,1-f][1,2,4]triazin-4-yl)amino)-1H-imidazol-1-yl)-5-methoxybenzoate]
100 to 1000 nM	COc1cc(C(=O)N2CCC[C@H]2CO)cc(-n2cnc(Nc3nc(N4CCC[C@H]4CO)nn4cccc34)c2)c1 [Compound 416f, ((S)-2-(hydroxymethyl)pyrrolidin-1-yl)(3-(4-((2-((S)-2-(hydroxymethyl)pyrrolidin-1-yl)pyrrolo[2,1-f][1,2,4]triazin-4-yl)amino)-1H-imidazol-1-yl)-5-methoxyphenyl)methanone]
> 1000 nM	OC[C@@H]1CCCN1c1nc(Nc2cn(-c3ccc(OC(F)(F)F)c(Cl)c3)cn2)c2cccn2n1 [Compound 417e, (S)-(1-(4-((1-(3-chloro-4-(trifluoromethoxy)phenyl)-1H-imidazol-4-yl)amino)pyrrolo[2,1-f][1,2,4]triazin-2-yl)pyrrolidin-2-yl)methanol]
> 1000 nM	COc1cc(-c2nnc(Nc3nc(N4CCC[C@H]4CO)c4cccn4n3)o2)cc(OC)c1OC [Compound 418b, (S)-(1-(2-((5-(3,4,5-trimethoxyphenyl)-1,3,4-oxadiazol-2-yl)amino)pyrrolo[2,1-f][1,2,4]triazin-4-yl)pyrrolidin-2-yl)methanol]
100 to 1000 nM	COc1cc(-n2cnc(Nc3nc(C(=O)N4CCCC4)c4cccn4n3)c2)cc(OC)c1OC [Compound 419b, pyrrolidin-1-yl(2-((1-(3,4,5-trimethoxyphenyl)-1H-imidazol-4-yl)amino)pyrrolo[2,1-f][1,2,4]triazin-4-yl)methanone]
> 1000 nM	OC[C@@H]1CCCN1c1nc(Nc2cn(-c3ccc(OC(F)(F)F)c(Br)c3)cn2)c2cccn2n1 [Compound 420e, (S)-(1-(4-((1-(3-bromo-4-(trifluoromethoxy)phenyl)-1H-imidazol-4-yl)amino)pyrrolo[2,1-f][1,2,4]triazin-2-yl)pyrrolidin-2-yl)methanol]
< 100 nM	OC[C@@H]1CCCN1c1nc(Nc2cn(-c3ccncc3)cn2)c2cccn2n1 [Compound 421e, (S)-(1-(4-((1-(pyridin-4-yl)-1H-imidazol-4-yl)amino)pyrrolo[2,1-f][1,2,4]triazin-2-yl)pyrrolidin-2-yl)methanol]
< 100 nM	COc1cc(-n2cnc(Nc3nc(N4CCN(CCO)CC4)nc4sccc34)c2)cc(OC)c1OC [Compound 422a, 2-(4-(4-((1-(3,4,5-trimethoxyphenyl)-1H-imidazol-4-yl)amino)thieno[2,3-d]pyrimidin-2-yl)piperazin-1-yl)ethanol]
100 to 1000 nM	OC[C@@H]1CCCN1c1nc(Nc2cn(-c3ccc4c(c3)OCCO4)cn2)c2cccn2n1 [Compound 423e, (S)-(1-(4-((1-(2,3-dihydrobenzo[b][1,4]dioxin-6-yl)-1H-imidazol-4-yl)amino)pyrrolo[2,1-f][1,2,4]triazin-2-yl)pyrrolidin-2-yl)methanol]
< 100 nM	OC[C@@H]1CCCN1c1nc(Nc2cn(-c3cccc4c3OCO4)cn2)c2cccn2n1 [Compound 424e, (S)-(1-(4-((1-(benzo[d][1,3]dioxol-4-yl)-1H-imidazol-4-yl)amino)pyrrolo[2,1-f][1,2,4]triazin-2-yl)pyrrolidin-2-yl)methanol]
